Patent US11731946B2, “Broad spectrum antivirulence, anti-persistence compounds” (priority 2017, dated 2023)
Entries after “also recorded” stand apart in the source; their conditions may differ. Read-outs that look alike come from different tables or passages of the source.

Columns and labels:
[1] = system: MvfR regulon; assay: pqsA gene expression (pqsA-GFP reporter); type: cell-based, P. aeruginosa; conditions: for IC50 / activity at 50 µM / activity at 10 µM: Pseudomonas aeruginosa; for IC50: read-out: IC50 pqsA (μM); for activity at 50 µM: read-out: pqsA @50 uM (%), compound at 50 uM; for activity at 10 µM: read-out: pqsA @10 uM (%), compound at 10 uM
[2] = system: MvfR regulon; assay: Quantification of pyocyanin (OD520nm of chloroform-extracted cultures); type: cell-based, P. aeruginosa; conditions: for activity at 50 µM: read-out: pyocyanin @50 uM (%), compound at 50 uM; for activity at 1 µM: read-out: pyocyanin @1 uM (%), compound at 1 uM; for activity at 10 µM: read-out: pyocyanin @10 uM (%), compound at 10 uM
[3] = system: MvfR regulon; assay: LC/MS quantification of HAQs and related molecules in bacterial culture supernatants; type: cell-based, P. aeruginosa; conditions: Pseudomonas aeruginosa
[4] = target: T1, MvfR (Pseudomonas aeruginosa, UniProt Q9I4X0); assay: Surface plasmon resonance (SPR) binding to purified MvfR co-inducer binding domain; set-up: species or system P. aeruginosa; conditions: SPR
T1 construct: made in house
Experimental: Compounds identified to interfere with MvfR were confirmed for the direct physical interaction with this protein. Using SPR, the percentage of compound's binding to the purified MvfR protein was analyzed and used to determine the binding parameters (KD, kon and koff)—thus determining the kinetic of interaction with MvfR.
The recombinant MvfR co-inducer binding domain was purified using Ni-NTA chromatography, as previously reported (see e.g., Xiao et al, Microbiology, 2006, 152:1679-1686; Starkey et al, PLoS Pathog. 2014, 10:e1004321; and Kefala et al, Acta. Crystallogr. Sect. F. Struct. Biol. Cryst. Commun. 2012, 68:695-697). The purified protein was immobilized with the amine coupling method at a target level of 5000 RU on Chip. SPR was performed according to previously reported procedures (see e.g., Starkey et al, PLoS Pathog. 2014, 10:e1004321; Maura et al, ACS Chemical Biology, 2017, 12:1435-1443; and Kitao et al, MBIO, in press). […] Table 3 lists the steady-state KD data measured by SPR.

[5] = system: Caco2 intestinal epithelial cells; assay: Survival of Caco2 cells after compound exposure; type: cell-based; conditions: 25 μM, 3 hours exposure
[6] = system: PA14; assay: Mouse thigh infection model (PA14); type: in vivo, mice
Experimental: Mice were infected with 5×10^5 and 5×10^6 PA14 cells for the thigh and lung infection model respectively. FIGS. 5A-5C: Thigh model: treatment was initiated […] and repeated at 4, 8, 12 and 18 hours. FIG. 5A: monotherapy with Compound 72, 10 mg/kg (P<0.05 Mann Whitney test); FIG. 5B-5C. Combinatorial: Compound 72 (10 mg/kg) plus Ciprofloxacin 1 mg/kg (subtherapeutic dose) (FIG. 5B: P<0.05; Figure C: P>0.05; Mann Whitney test). CFUs were assessed 24 h post-infection in the thigh (FIG. 5A), liver (FIG. 5B) and spleen (FIG. 5C). Compound 72 was administered subcutaneously and ciprofloxacin intraperitoneally (IP). […] Mice were infected with 5×10^6 PA14 cells lung infection model. Compound 54 (10 mg/kg) plus ciprofloxacin 1 mg/kg treatment (subtherapeutic dose) was initiated at 2 h post-infection and repeated at 6, 12, and 18 h post-infection. CFUs were assessed 24 h post-infection in the lung. Compound 54 was administered subcutaneously and ciprofloxacin intraperitoneally (IP).
Thigh infection studies were performed using Compounds 54 and 72.

[7] = system: Pseudomonas aeruginosa MDR clinical isolates; assay: Pyocyanin production in MDR clinical isolates; type: cell-based; conditions: 10 μM
Experimental: Percentage of pyocyanin production is presented in presence of 10 μM of D57 or D88 compounds. Tukey's multiple comparisons test p<0.0001.
Pyocyanin levels were determined by measuring OD520nm of chloroform-extracted cultures.

[8] = Pharmacokinetics in mouse plasma and lung after single subcutaneous injection; type: in vivo, mice
Experimental: FIGS. 1F-1G show pharmacokinetics measured in mouse plasma (FIG. 1F) and lung (FIG. 1G) following a single subcutaneous injection of Compounds 53, 54, or 72 at 10 mg/kg.

[9] = Pseudomonas aeruginosa, read-out: IC50 pyocyanin (μM)
[10] = Steady State Binding Affinity KD (μM), steady state
[11] = Steady State Binding Affinity KD [M], steady state
[12] = mean KD value, mean over the compounds named
[13] = compound at 10 uM, listed as D62
[14] = compound at 50 uM, listed as D62

T1 sequence (Q9I4X0 91-332): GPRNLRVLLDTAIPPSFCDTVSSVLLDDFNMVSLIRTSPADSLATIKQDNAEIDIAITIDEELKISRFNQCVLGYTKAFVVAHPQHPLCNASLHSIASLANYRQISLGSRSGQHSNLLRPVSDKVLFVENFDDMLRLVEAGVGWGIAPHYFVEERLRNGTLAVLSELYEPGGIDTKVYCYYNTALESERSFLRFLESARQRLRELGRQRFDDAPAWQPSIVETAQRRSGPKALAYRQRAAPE

Structure (SMILES)	IC50 [1] [µM]	activity at 50 µM [1] [%]	IC50 [2, 9] [µM]	activity at 50 µM ([2]; Pseudomonas aeruginosa) [%]	activity at 50 µM ([3]; read-out: 2-AA @50 uM) [%]	activity at 50 µM ([3]; read-out: DHQ @50 uM) [%]	activity at 50 µM ([3]; read-out: HHQ @50 uM (%)) [%]	activity at 50 µM ([3]; read-out: HQNO @50 uM (%)) [%]	activity at 50 µM ([3]; read-out: PQS @50 uM (%)) [%]	Signal Intensity Rmax [4]	Kd [4, 10] [µM]	Kd [4, 11] [µM]	Kd [4, 12] [µM]	activity at 1 µM ([2]; Pseudomonas aeruginosa) [%]	activity at 10 µM ([2]; Pseudomonas aeruginosa) [%]	toxicity to Caco2 (survival) [5]	activity at 10 µM [1] [%]	activity on pyocyanin production in MDR clinical isolates [7]	further results
Cc1cc(F)ccc1NCC(=O)Nc1ccc(C#N)cc1 [Compound 1]	20.2	32.4	70.6	66.8	101	135	2.67	17	10.5	23.41	9.18	9.19	–	–	–	–	–	–	IC50 ([3]; PA14, read-out: IC50 HHQ (μM)): 10.4 µM; IC50 ([3]; PA14, read-out: IC50 PQS (μM)): 15.1 µM; activity at 50 µM ([3]; read-out: AA @50 uM): 100%; IC50 ([3]; read-out: IC50 HQNO (μM)): 20.3 µM
N#Cc1ccc(NC(=O)CC(=O)Nc2ccc(C#N)cc2)cc1 [Compound 57]	0.94	8.3	1.37	8.07	20	31.9	18.1	36	22.3	27.05	0.286	0.286	~0.25	–	–	–	–	–	activity at 50 µM ([3]; read-out: AA @50 uM): 531%; binding intensity relative to parent Compound 1 [4]: 40 times
N#Cc1ccc(NC(=O)CC(=O)Nc2ccc([N+](=O)[O-])cc2)cc1 [Compound 65]	2.54	9.5	–	3.4	6.94	12.3	2.88	18.4	6.32	29.51	0.399	0.399	–	80.3	29.7	not toxic	–	–	IC50 ([2]; read-out: IC50 pyocyanin): 4.48 µM; IC50 ([3]; PA14, read-out: IC50 2-AA (μM)): 8.95 µM; IC50 ([3]; PA14, read-out: IC50 DHQ (μM)): 11.3 µM; IC50 ([3]; PA14, read-out: IC50 HHQ (μM)): 21.2 µM; IC50 ([3]; PA14, read-out: IC50 PQS (μM)): 23 µM; IC50 ([3]; read-out: IC50 AA (increase; μM)): 34 µM; IC50 ([3]; read-out: IC50 HQNO (μM)): 23.3 µM
N#Cc1ccc(NC(=O)CC(=O)Nc2ccc(I)cc2)cc1 [Compound 71]	0.72	6.03	1.63	13.3	–	–	–	–	–	30.74	0.259	0.259	~0.25	–	–	not toxic	13.3	–	binding intensity relative to parent Compound 1 [4]: 40 times
N#Cc1ccc(NC(=O)CC(=O)Nc2ccc(Oc3ccccc3)cc2)cc1 [Compound 72]	0.52	3.7	0.891	6.06	–	–	–	–	–	34.24	1.09	1.09	0.25	14	16.8	not toxic	1.08	–	bacterial CFUs at the site of infection ([6]; 10 mg/kg SC, CFUs 24 h post-infection): decrease bacterial dissemination and titer at the infection site; also recorded: reduced bacterial CFUs; potentiation of ciprofloxacin in reducing PA cells dissemination in spleen and liver ([6]; 10 mg/kg compound SC plus ciprofloxacin 1 mg/kg IP): potentiated ciprofloxacin efficacy; activity on pyocyanin production in MDR clinical isolates ([7]; listed as D57): highly active; also recorded: confirmed; stability in vivo (serum concentration) ([8]; 10 mg/kg subcutaneous, over 24 h): stable in vivo; half-life ([8]; mouse lung, 10 mg/kg SC, read-out: lung half-life (converted)): 1.19 h; Tlast ([8]; mouse plasma, 10 mg/kg SC): ~6 h; half-life ([8]; mouse plasma, 10 mg/kg SC, read-out: plasma half-life (converted)): 1.13 h; pharmacokinetics (in words) ([8]; mouse, in vivo): promising pharmacokinetics
O=C(CC(=O)Nc1ccc([N+](=O)[O-])cc1)Nc1ccc(Oc2ccccc2)cc1 [Compound 73]	0.21	8.9	0.398	5.9	–	–	–	–	–	33.31	0.755	0.755	–	9.2	5.2	–	1.95	–	–
O=C(CC(=O)Nc1ccc([N+](=O)[O-])cc1O)Nc1ccc(Oc2ccccc2)cc1 [Compound 76]	0.42	6.7	0.368	5.6	–	–	–	–	–	36.46	0.478	0.478	–	10.5	6.17	–	10	highly active	–
N#Cc1ccc(NC(=O)CC(=O)Nc2ccc(Oc3ccccc3)cc2)c(N)c1 [Compound 77]	–	–	–	–	–	–	–	–	–	–	–	–	–	–	–	–	–	highly active	pqsA @10 uM (%) [1, 13]: 1.51%; pqsA @50 uM (%) [1, 14]: 6.20%; pyocyanin @1 uM (%) ([2]; compound at 1 uM, listed as D62): 57.50%; pyocyanin @10 uM (%) [2, 13]: 6.17%; pyocyanin @50 uM (%) [2, 14]: 7.30%
N#Cc1ccc(NC(=O)CC(=O)Nc2ccc(Oc3ccccc3)cc2)c(O)c1 [Compound 78]	0.938	7.3	0.618	5.9	–	–	–	–	–	34.69	0.494	0.494	–	8.8	5.73	–	9.63	highly active	–
N#Cc1ccc(NC(=O)CC(=O)Nc2ccc(C#N)c(Cl)c2)cc1 [Compound 110]	–	5.61	–	4.12	–	–	–	–	–	–	–	–	0.25	64.7	6.8	–	1.75	–	–
